Measured values published in patent US20140094465A1, “Compounds as S-Nitrosoglutathione Reductase Inhibitors” (N30 PHARMACEUTICALS, INC., priority 2011, published 2014).

Experiments:
[1] = tested on: ovalbumin (OVA)-induced asthma; assay: Mouse model of ovalbumin (OVA)-induced asthma (Penh, eosinophil infiltrate in BALF); type: in vivo; conditions: for decrease of eosinophil infiltration in BAL: three oral doses of 10 mg/kg at 48 h, 24 h, and 1 h prior to assessment
Method: A mouse model of ovalbumin (OVA)-induced asthma was used to screen GSNOR inhibitors for efficacy against methacholine (MCh)-induced bronchoconstriction/airway hyper-responsiveness. This is a widely used and well characterized model that presents with an acute, allergic asthma phenotype with similarities to human asthma. Efficacy of GSNOR inhibitors was assessed using a protocol in which GSNOR inhibitors were administered after OVA sensitization and airway challenge, and prior to challenge with MCh. Bronchoconstriction in response to challenge with increasing doses of MCh was assessed using whole body plethysmography (Penh; Buxco). The amount of eosinophil infiltrate into the bronchoaveolar lavage fluid (BALF) was also determined as a measure of lung inflammation. The effects of GSNOR inhibitors were compared to vehicles and to Combivent (inhaled; IH) as the positive control.
OVA (500 μg/ml) in PBS was mixed with equal volumes of 10% (w/v) aluminum potassium sulfate in distilled water and incubated for 60 min. at room temperature after adjustment to pH 6.5 using 10 N NaOH. After centrifugation at 750×g for 5 min, the OVA/alum pellet was resuspended to the original volume in distilled water. Mice received an intraperitoneal (IP) injection of 100 μg OVA (0.2 mL of 500 μg/mL in normal saline) complexed with alum on day 0. Mice were anesthetized by IP injection of a 0.2-mL mixture of ketamine and xylazine (0.44 and 6.3 mg/mL, respectively) in normal saline and were placed on a board in the supine position. Two hundred fifty micrograms (100 μl of a 2.5 mg/ml) of OVA (on day 8) and 125 μg (50 μl of 2.5 mg/ml) OVA (on days 15, 18, and 21) were placed on the back of the tongue of each animal.
In vivo airway responsiveness to methacholine was measured 24 h after the last OVA challenge in conscious, freely moving, spontaneously breathing mice with whole body plethysmography using a Buxco chamber (Wilmington, N.C.). Mice were challenged with aerosolized saline or increasing doses of methacholine (5, 20, and 50 mg/mL) generated by an ultrasonic nebulizer for 2 min. The degree of bronchoconstriction was expressed as enhanced pause (Penh), a calculated dimensionless value, which correlates with the measurement of airway resistance, impedance, and intrapleural pressure in the same mouse. Penh readings were taken and averaged for 4 min. after each nebulization challenge. Penh is calculated as follows: Penh=[(Te/Tr−1)×(PEF/PIF)], where Te is expiration time, Tr is relaxation time, PEF is peak expiratory flow, and PIF is peak inspiratory flow×0.67 coefficient. The time for the box pressure to change from a maximum to a user-defined percentage of the maximum represents the relaxation time. The Tr measurement begins at the maximum box pressure and ends at 40%.
After measurement of airway hyper-reactivity, the mice were exsanguinated by cardiac puncture, and then BALF was collected from either both lungs or from the right lung after tying off the left lung at the mainstem bronchus. Total BALF cells were counted from a 0.05 mL aliquot, and the remaining fluid was centrifuged at 200×g for 10 min at 4° C. Cell pellets were resuspended in saline containing 10% BSA with smears made on glass slides. Eosinophils were stained for 5 min. with 0.05% aqueous eosin and 5% acetone in distilled water, rinsed with distilled water, and counterstained with 0.07% methylene blue. Alternatively, eosinophils and other leukocytes were stained with DiffQuik.
GSNOR inhibitors were reconstituted in phosphate buffered saline (PBS), pH 7.4, or 0.5% w/v carboxy methylcellulose at concentrations ranging from 0.00005 to 3 mg/mL. GSNOR inhibitors were administered to mice (10 mL/kg) as a single dose or multiple dose either intravenously (IV) or orally via gavage. Dosing was performed from 30 min. to 72 h prior to MCh challenge. Effects of GSNOR inhibitors were compared to vehicle dosed in the same manner.
Combivent was used as the positive control in all studies. […]

[2] = tested on: cigarette smoke-induced COPD; assay: Subchronic (11 day) cigarette smoke exposure COPD model; type: in vivo, mouse; conditions: subchronic 11 day model
Method: Infiltration of inflammatory cells into the bronchoalveolar lavage fluid (BALF) and BALF levels of chemokines involved in inflammation and tissue turnover/repair were measured to assess the influences of GSNOR inhibitors on some of the early events associated with the initiation and progression of COPD. […] In animal models, changes in lung pathology are only evident after extended (several months) duration of exposure to cigarette smoke, thus making chronic models prohibitive as effective screening tools. […] The key roles of inflammation in the initiation and progression of COPD, make these short duration models relevant for initial tests of efficacy of novel therapeutics. Female C57Bl/6 mice (N=10 per group) were exposed to cigarette smoke generated from Marlboro 100 cigarettes without filters. Exposure times were 25 min. on study day 1, 35 min. on study day 2, and 45 min. on study days 3 to 11. GSNOR inhibitors were administered one hour prior to smoke exposure on each day. GSNOR inhibitors were dosed orally at 1 to 10 mg/kg/day for 11 days. […] The effect of GSNOR inhibitors were compared to vehicle treated controls and expressed as percent inhibition of the cigarette smoke induced increases in BALF cell numbers. Roflumilast was used as the positive control for the study and was dosed at 5 mg/kg/day. A group of naïve mice (N=10) was exposed to air and dosed with vehicle as a negative control for the study.

[3] = single oral dose of 10 mg/kg at 24 h prior to assessment

SMILES: O=c1[nH]c(-c2ccc(-c3c(C(F)(F)F)oc4cc(O)ccc4c3=O)cc2)no1 [IV-31]
- decrease of AUC for Penh [1, 3]: 18 % of vehicle control
- decrease of eosinophil infiltration into BALF [1, 3]: 82 % of vehicle control

SMILES: O=C(O)c1ccc(-c2ccc3cc(O)ccc3c2)c(F)c1 [III-2]
- decrease of eosinophil infiltration in BAL [1]: 44 % of vehicle control

SMILES: O=c1c(-c2ccc(-c3nnn[nH]3)cc2)c(C(F)(F)F)oc2cc(O)ccc12 [IV-23]
- decrease of AUC for Penh ([1]; single IV dose of 10 mg/kg at 24 h prior to assessment): 39 % of vehicle control

SMILES: O=c1c2ccc(O)cc2oc(C(F)(F)F)c1[C@H]1CC[C@H](C(=O)O)CC1 [IV-25]
- inhibition of smoke-induced increase in eosinophils in BALF ([2]; oral 10 mg/kg/day for 11 days): 57%
- inhibition of smoke-induced increase in lymphocytes in BALF ([2]; oral 10 mg/kg/day for 11 days): 24%
- inhibition of smoke-induced increase in macrophages in BALF ([2]; oral 10 mg/kg/day for 11 days): 28%
- inhibition of smoke-induced increase in neutrophils in BALF ([2]; oral 10 mg/kg/day for 11 days): 25%
- inhibition of smoke-induced increase in total cells in BALF ([2]; oral 10 mg/kg/day for 11 days): 26%
- decrease of AUC for Penh [1, 3]: 43 % of vehicle control
- decrease of eosinophil infiltration into BALF [1, 3]: 42 % of vehicle control
- decrease of eosinophil infiltration in BAL [1]: 12 % of vehicle control

SMILES: O=C(O)c1ccc(-c2c(C(F)(F)F)oc3cc(O)ccc3c2=O)c(F)c1 [IV-38]
- inhibition of smoke-induced increase in lymphocytes in BAL ([2]; oral 1 mg/kg/day for 11 days): 62%
- inhibition of smoke-induced increase in macrophages in BAL ([2]; oral 1 mg/kg/day for 11 days): 44%
- inhibition of smoke-induced increase in neutrophils in BAL ([2]; oral 1 mg/kg/day for 11 days): 68%
- inhibition of smoke-induced increase in total cells in BAL ([2]; oral 1 mg/kg/day for 11 days): 53%
- effects compared with roflumilast ([2]; roflumilast 5 mg/kg/day): comparable to those of roflumilast
- decrease of eosinophil infiltration in BAL [1]: 36 % of vehicle control
